Columns and labels:
MAGL [1] = molecular target: T1, MAGL (Homo sapiens, UniProt Q99685); experiment: In vitro competitive activity-based protein profiling, MAGL, human; conditions: for inhibition at 1 µM: read-out: MAGL % inh. 1 μM (human)
T1 sequence (Q99685 1-303): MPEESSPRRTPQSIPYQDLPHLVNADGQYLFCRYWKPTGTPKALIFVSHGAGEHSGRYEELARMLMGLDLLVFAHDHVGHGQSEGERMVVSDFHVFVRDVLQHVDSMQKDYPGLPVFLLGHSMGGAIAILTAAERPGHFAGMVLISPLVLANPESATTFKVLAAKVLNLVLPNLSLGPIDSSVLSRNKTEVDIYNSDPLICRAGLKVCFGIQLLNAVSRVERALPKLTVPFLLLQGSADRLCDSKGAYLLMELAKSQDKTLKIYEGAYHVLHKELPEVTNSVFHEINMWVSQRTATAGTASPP

MAGL [2] = molecular target: T2, MAGL (Mus musculus, UniProt O35678); experiment: In vitro competitive activity-based protein profiling, MAGL, mouse; conditions: read-out: MAGL % inh. 1 μM (mouse)
T2 sequence (O35678 1-303): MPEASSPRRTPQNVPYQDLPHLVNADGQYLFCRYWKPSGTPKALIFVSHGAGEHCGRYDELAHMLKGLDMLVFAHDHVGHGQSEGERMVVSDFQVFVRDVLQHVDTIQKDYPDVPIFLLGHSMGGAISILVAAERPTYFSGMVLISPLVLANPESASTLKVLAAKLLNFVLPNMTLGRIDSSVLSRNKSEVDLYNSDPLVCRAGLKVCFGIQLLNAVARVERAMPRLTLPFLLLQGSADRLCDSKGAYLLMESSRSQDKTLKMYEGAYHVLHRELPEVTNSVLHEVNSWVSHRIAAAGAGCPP

inhibition at 1 µM (MAGL [1])	inhibition at 1 µM (MAGL [2])	inhibition at 10 µM (MAGL [1]; read-out: MAGL % inh. (human) at 10 uM)	Compound
0 to 25%	25 to 50%	–	O=C(O)c1ccn(C(=O)N2CCC3(CCN(Cc4ccc(Cl)c(N5CCOCC5)c4)C3)CC2)n1 [Example 372, 1-(2-(4-chloro-3-morpholinobenzyl)-2,8-diazaspiro[4.5]decane-8-carbonyl)-1H-pyrazole-3-carboxylic acid]
> 75%	> 75%	–	C[C@H]1CN(Cc2cccc(Oc3cc(C(F)(F)F)ccn3)c2)CCN1C(=O)n1ccc(C(=O)O)n1 [Example 373, (S)-1-(2-methyl-4-(3-((4-(trifluoromethyl)pyridin-2-yl)oxy)benzyl)piper-azine-1-carbonyl)-1H-pyrazole-3-carboxylic acid]
> 75%	> 75%	–	C[C@@H]1CN(Cc2cccc(Oc3cc(C(F)(F)F)ccn3)c2)CCN1C(=O)n1ccc(C(=O)O)n1 [Example 374, (R)-1-(2-methyl-4-(3-((4-(trifluoromethyl)pyridin-2-yl)oxy)benzyl)piper-azine-1-carbonyl)-1H-pyrazole-3-carboxylic acid]
0 to 25%	0 to 25%	–	NC(=O)c1ccn(C(=O)N2CCC3(CCN(Cc4cc5ccc(C(F)(F)F)cc5s4)C3)CC2)n1 [Example 377, 1-(2-((6-(trifluoromethyl)benzo[b]thiophen-2-yl)methyl)-2,8-diazaspiro[4.5]decane-8-carbonyl)-1H-pyrazole-3-carboxamide]
> 75%	> 75%	–	O=C(O)c1nn(C(=O)N2CCN(Cc3cc(F)cc(Oc4ccc(Cl)cc4)c3)CC2)cc1Cl [Example 378, 4-chloro-1-(4-(3-(4-chlorophenoxy)-5-fluorobenzyl)piper-azine-1-carbonyl)-1H-pyrazole-3-carboxylic acid]
> 75%	> 75%	–	O=C(O)c1ccn(C(=O)N2CCN(Cc3ccc(N4CC5COCC5C4)cc3C(F)(F)F)CC2)n1 (stereo not shown) [Example 379, 1-(4-(4-(tetrahydro-1H-furo[3,4-c]pyrrol-5(3H)-yl)-2-(trifluoromethyl)benzyl)piperazine-1-carbonyl)-1H-pyrazole-3-carboxylic acid]
> 75%	> 75%	–	O=C(O)c1ccn(C(=O)N2CCN(Cc3ccc(C(F)(F)F)cc3N3CC4CCC(C3)O4)CC2)n1 [Example 380, 1-(4-(2-(8-oxa-3-azabicylco[3.2.1]octan-3-yl)-4-(trifluoromethyl)benzyl)piperazine-1-carbonyl)-1H-pyrazole-3-carboxylic acid]
> 75%	> 75%	–	CN(Cc1ccc(N2CCCC2)c(C(F)(F)F)c1)C1(C)CCN(C(=O)n2ccc(C(=O)O)n2)CC1 [Example 383, 1-(4-methyl-4-(methyl(4-(pyrrolidin-1-yl)-3-(trifluoromethyl)benzyl)amino)piper-idine-1-carbonyl)-1H-pyrazole-3-carboxylic acid]
50 to 75%	> 75%	–	Cc1cc(-c2cccc(S(C)(=O)=O)c2)ccc1CN1CCN(C(=O)n2ccc(C(=O)O)n2)[C@H](C)C1 [Example 386, (R)-1-(2-methyl-4-((3-methyl-3′-(methylsulfonyl)-[1,1′-biphenyl]-4-yl)methyl)piperazine-1-carbonyl)-1H-pyrazole-3-carboxylic acid]
> 75%	> 75%	–	NC(=O)c1ccn(C(=O)N2CCC3(CCCN3C(=O)c3cc4ccc(C(F)(F)F)cc4s3)CC2)n1 [Example 389, 1-(1-(6-(trifluoromethyl)benzo[b]thiophene-2-carbonyl)-1,8-diazaspiro[4.5]decane-8-carbonyl)-1H-pyrazole-3-carboxamide]
> 75%	> 75%	–	O=C(O)c1ccn(C(=O)N2CCC3(CCN(Cc4cc(N5CCCC5)ccc4C(F)(F)F)C3)CC2)n1 [Example 391, 1-(2-(5-(pyrrolidin-1-yl)-2-(trifluoromethyl)benzyl)-2,8-diazaspiro[4.5]decane-8-carbonyl)-1H-pyrazole-3-carboxylic acid]
> 75%	> 75%	–	NC(=O)c1ccn(C(=O)N2CC3CN(Cc4ccc(C5(O)CCOCC5)cc4C(F)(F)F)CC3C2)n1 (stereo not shown) [Example 396]
> 75%	> 75%	–	Cc1cn(C(=O)N2CCC(C)(N(C)Cc3ccc(C(F)(F)F)cc3N3CCCC3)CC2)nc1C(=O)O [Example 398]
> 75%	> 75%	–	O=C(O)c1nn(C(=O)N2CCN(Cc3cccc(Oc4cc(C(F)(F)F)ccn4)c3)CC2)cc1Cl [Example 399, 4-chloro-1-(4-(3-((4-(trifluoromethyl)pyridin-2-yl)oxy)benzyl)piper-azine-1-carbonyl)-1H-pyrazole-3-carboxylic acid]
–	0 to 25%	> 75%	O=C(O)c1ccn(C(=O)N2CCC3(CCN(Cc4ccc(N5CC6COCC6C5)cc4Cl)C3)CC2)n1 (stereo not shown) [Example 400, 1-(2-(2-chloro-4-(tetrahydro-1H-furo[3,4-c]pyrrol-5(3H)-yl)benzyl)-2,8-diazaspiro[4.5]decane-8-carbonyl)-1H-pyrazole-3-carboxylic acid]
25 to 50%	0 to 25%	–	O=C(O)c1ccn(C(=O)N2CCC3(CCN(Cc4ccc(Cl)c(N5CC6COCC6C5)c4)C3)CC2)n1 (stereo not shown) [Example 401, 1-(2-(4-chloro-3-(tetrahydro-1H-furo[3,4-c]pyrrol-5(3H)-yl)benzyl)-2,8-diazaspiro[4.5]decane-8-carbonyl)-1H-pyrazole-3-carboxylic acid]
> 75%	> 75%	–	O=C(O)c1ccn(C(=O)N2CCC3(CCCN3Cc3ccc(C(F)(F)F)cc3N3CCOCC3)CC2)n1 [Example 405, 1-(1-(2-morpholino-4-(trifluoromethyl)benzyl)-1,8-diazaspiro[4.5]decane-8-carbonyl)-1H-pyrazole-3-carboxylic acid]
> 75%	> 75%	–	O=C(O)c1nn(C(=O)N2CCN(Cc3cc(F)cc(Oc4ccc(Cl)cc4)c3)CC2)cc1C(F)(F)F [Example 408]
> 75%	> 75%	–	O=C(O)c1nn(C(=O)N2CCN(Cc3cccc(Oc4cc(C(F)(F)F)ccn4)c3)CC2)cc1C(F)(F)F [Example 414, 4-(trifluoromethyl)-1-(4-(3-((4-(trifluoromethyl)pyridin-2-yl)oxy)benzyl)piper-azine-1-carbonyl)-1H-pyrazole-3-carboxylic acid]
> 75%	> 75%	–	O=C(O)c1ccn(C(=O)N2CCC3(CCCN3Cc3ccc(C(F)(F)F)cc3N3CC4COCC4C3)CC2)n1 (stereo not shown) [Example 415, 1-(1-(2-(tetrahydro-1H-furo[3,4-c]pyrrol-5(3H)-yl)-4-(trifluoromethyl)benzyl)-1,8-diazaspiro[4.5]decane-8-carbonyl)-1H-pyrazole-3-carboxylic acid]
> 75%	> 75%	–	O=C(O)c1ccn(C(=O)N2CCC3(CCCN3Cc3ccc(C(F)(F)F)cc3N3CC4CCC(C3)O4)CC2)n1 [Example 416, 1-(1-(2-(8-oxa-3-azabicyclo[3.2.1]octan-3-yl)-4-(trifluoromethyl)benzyl)-1,8-diazaspiro[4.5]decane-8-carbonyl)-1H-pyrazole-3-carboxylic acid]
25 to 50%	0 to 25%	–	O=C(O)c1ccn(C(=O)N2CCC3(CCCN3Cc3ccc(C(F)(F)F)cc3N3CCN4CCC[C@@H]4C3)CC2)n1 [Example 417, (R)-1-(1-(2-(hexahydropyrrolo[1,2-a]pyrazin-2(1H)-yl)-4-(trifluoromethyl)benzyl)-1,8-diazaspiro[4.5]decane-8-carbonyl)-1H-pyrazole-3-carboxylic acid]
25 to 50%	0 to 25%	–	O=C(O)c1ccn(C(=O)N2CCC3(CCCN3Cc3ccc(C(F)(F)F)cc3N3CCN4CCC[C@H]4C3)CC2)n1 [Example 418, (S)-1-(1-(2-(hexahydropyrrolo[1,2-a]pyrazin-2(1H)-yl)-4-(trifluoromethyl)benzyl)-1,8-diazaspiro[4.5]decane-8-carbonyl)-1H-pyrazole-3-carboxylic acid]
> 75%	> 75%	–	C[C@H]1CN(Cc2cccc(OCC(C)(C)O)c2Cl)CCN1C(=O)n1ccc(C(N)=O)n1 [Example 450, (S)-1-(4-(2-chloro-3-(2-hydroxy-2-methylpropoxy)benzyl)-2-methylpiperazine-1-carbonyl)-1H-pyrazole-3-carboxamide]
> 75%	> 75%	–	CC(C)(O)COc1cccc(O[C@H]2C[C@@H]3CN(C(=O)n4ccc(C(N)=O)n4)C[C@@H]3C2)c1Cl [Example 452, 1-(trans-5-(2-chloro-3-(2-hydroxy-2-methylpropoxy)phenoxy)octahydro-cyclopenta[c]pyrrole-2-carbonyl)-1H-pyrazole-3-carboxamide]
> 75%	> 75%	–	NC(=O)c1ccn(C(=O)N2CCN(Cc3cccc(C4(C(=O)O)CCOCC4)c3)CC2)n1 [Example 455, 4-(3-((4-(3-carbamoyl-1H-pyrazole-1-carbonyl)piperazin-1-yl)methyl)phenyl) tetrahydro-2H-pyran-4-carboxylic acid]

Source: patent US10266497B2 (ABIDE THERAPEUTICS, INC., priority 2017, dated 2019)
